Data on nine compounds can be found in patent EP0252299A2, “Use of 12-amino-pyridazino[4',5':3,4]pyrrolo[2,1-a]isoquinolines in the preparation of cardioprotective and neuroprotective agents” (BOEHRINGER INGELHEIM KG, priority 1986, dated 1988).

For assay [1], the system named is myocardiale Radio-Calciumaufnahme. Nature of the assay: Cardioprotective effect: inhibition of isoprenaline-induced myocardial radio-calcium uptake in conscious rats (method of Arndts). It counts as in vivo, Ratten. The settings on record: s.c. or p.o., dose that inhibits by 50 % the myocardial radio-calcium uptake caused by 30 mg/kg s.c. Isoprenalin. The text has this:
Die cardioprotektive Wirkung wird auf folgende Weise bestimmt: Bekanntlich ist der mycardiale Ca⁺²-Gehalt ein Maß für die hypoxische bzw. die durch toxische Catecholamindosen hervorgerufene Herzschädigung (Higgins et al., Mol. Cell. Cardiol. 10: 427 - 438, 1984; Nakanishi et al., Am. J. Physiol. 242: 437 - 449, 1982; Fleckenstein, A., Vorträge der Erlanger Physiol. Tagung 1970, Ed. Keidel, Springer Verlag Berlin, Heidelberg, New York, 1971). Umgekehrt ist die Inhibition der hypoxischen oder Isoprenalin-bedingten myocardialen Calciumaufnahme ein Maß für die cardioprotektive Effektivität von Calciumantagonisten (Fleckenstein s.o.), von Calmodulininhibitoren (Higgins) und anderen Pharmaka, z.B. Betaadrenolytika (Arndts, Arzneimittelforschung 25: 1279 -1284, 1975).
Die cardioprotektive Wirkung wurde an wachen Ratten nach subcutaner oder peroraler Wirkstoffgabe anhand der von Arndts (s.o.) beschriebenen Methode festgestellt, und die Wirkungsstärke der Testsubstanzen als H₅₀-Wert angegeben; dieser Wert entspricht der Dosis, die die durch eine Gabe von 30 (mg/kg; s.c.) Isoprenalin bedingte, myocardiale Radio-Calciumaufnahme zu 50 % hemmt. Hier erwiesen sich die untersuchten neuen Verbindungen als ebenso wirksam wie Nifedipin.

The test system of assay [2] is Kaninchen-Aortenstreifen. Briefly: Calcium ion kinetics (45Ca2+ efflux) in rabbit aortic strips. The settings on record: for Potenzierung des stimulierten Ca²⁺-Efflux: stimulation with 80 mM K⁺. The text has this:
Bestimmung der Calcium-Ionenkinetik an Kaninchen-Aortenstreifen
Methode nach C. van Breemen, P. Aaronson, R. Loutzenheiser und K. Meisheri CHEST 78: 157s - 165s (1980) und R. Casteels & G. Droogman J. Physiol 317: 263 - 279 (1981)
Methode: Mit ⁴⁵Ca²⁺ geladene Aortenstreifen werden sequentiell äquilibriert in physiologischer Lösung. Dabei tauscht das intrazelluläre Ca²⁺ mit dem extrazellulären Ca²⁺ aus, das heißt im extrazellulären Bad ist das radioaktive ⁴⁵Ca²⁺ meßbar. Auf eine Stimulation mit 80 mM K⁺ oder 10⁻⁵ Mol/l Noradrenalin (NA) hin wird der Austausch beschleunigt. Dabei ist die im Bad ansteigende Radioaktivität ein Maß für den Ca²⁺-Efflux. So wird das Ausmaß der durch die Stimulation freigesetzten Ca²⁺ als Effluxrate bestimmt.

In assay [3] the test system is Isoliertes Rattenherz. Briefly: Isolated Langendorff rat heart, low-flow oxygen deficiency and reperfusion: time to onset of regular contractions. Also on record: species or system Ratten. The settings on record: concentration giving a significant reduction of the time to onset of regular contractions; infusion during O2 deficiency. On the procedure:
Die Untersuchungen am isolierten Langendorff-Herzen wurden nach O. Langendorff, Pflügers Arch. 61, 291 (1895) mit kleinen Abwandlungen ausgeführt:
Isoliertes Rattenherz, retrograde Perfusion über die Aorta. Elektrische Stimulation (300 Impulse/min. Impulsdauer Imsec.). Messung des linksventrikulär entwickelten Druckes mit flüssigkeitsgefülltem Latex-Ballon. Nach 20 min Aequilibrierung Auslösen eines Sauerstoff-Mangelzustandes mit 100-fach vermindertem Fluß durch Drosselung des Perfusionsflusses für 60 min, Rückkehr zu normalem Fluß bewirkt starken Anstieg der Grundspannung, unter Kontrollbedingungen setzt die Herztätigkeit nach 6 - 7 min unregelmäßig wieder ein, nach 15 -18 min rascher Übergang zu regelmäßigen Kontraktionen. Cardioprotektiv wirksame Verbindungen verkürzen die Zeit bis zum Einsetzen regelmäßiger Kontraktionen. Infusion der Testsubstanz (gelöst in unbegastem Perfusionsmedium) während des 0₂-Mangelzustandes herznah in das Perfusionssystem.
Die getesteten Verbindungen ergaben bei Anwendung in der unten angegebenen Konzentration eine signifikante Reduktion der Zeit bis zum Einsetzen regelmäßiger Kontraktionen.

Assay [4] deals with Tieren. Briefly: Hypoxia tolerance test: survival of animals in a closed chamber. The following applies: gas mixture 96,5 % nitrogen and 3,5 % oxygen; doses up to 30 mg/kg. It counts as in vivo.
A short description of assay [5]: Microiontophoresis (standard method). The text has this: Die Mikrointophorese wurde gemäß Standardmethode durchgeführt.
Assay [6] in a line: Scopolamine-induced impairment of short-term memory (scopolamine dementia). It counts as in vivo. The settings on record: Scopolamin 0,6 mg/kg i.p. The text has this:
In Vesuchen mit Einschränkung des Kurzzeitgedächtnisses bzw.

With “3,4-Dihydro-6,7-dimethoxy-12-(2-methoxyethyl)-amino-pyridazino [4ʹ,5ʹ : 3,4] pyrrolo [2,1-a] isochinolin”, the H50-Wert in assay [1] is 1,92.

Take “3,4-Dihydro-6,7-dimethoxy-12-(3-dimethylaminopropyl)-aminopyridazino [4ʹ,5ʹ : 3,4]pyrrolo[2,1-a]isochinolin”: the “Potenzierung des stimulierten Ca²⁺-Efflux” value in assay [2] is reported as 11%. The “Hemmung des stimulierten Ca²⁺-Efflux” value in assay [2] (stimulation with 10⁻⁵ Mol/l Noradrenalin (NA)) was determined as 19%. In assay [3], the Konzentration is on record as 13,3 µg/ml. Moreover, the Hypoxie result in assay [4] is reported as “wirksam (wirksam: Im Dosenbereich bis einschließlich 30 mg/kg zeigen in der mit Substanz behandelten Tiergruppe signifikant mehr Tiere den gewünschten Effekt als in der Kontrollgruppe.)”. Moreover, the H50-Wert in assay [1] was 0,46. Also, the Mikroiontophorese entry in assay [5] is listed as “wirksam (wirksam: Im Dosenbereich bis einschließlich 30 mg/kg zeigen in der mit Substanz behandelten Tiergruppe signifikant mehr Tiere den gewünschten Effekt als in der Kontrollgruppe.)”.

Take “3,4-Dihydro-6,7-dimethoxy-12-benzylamino-pyridazino[4ʹ,5ʹ : 3,4] pyrrolo[2,1-a]isochinolin [Verbindung H]”: in assay [6] (doses up to 30 mg/kg), the Scopolamin-Demenz result is reported as “wirksam (wirksam: Im Dosenbereich bis einschließlich 30 mg/kg zeigen in der mit Substanz behandelten Tiergruppe signifikant mehr Tiere den gewünschten Effekt als in der Kontrollgruppe.)”.

With “3,4-Dihydro-6,7-dimethoxy-12-ethylamino-pyridazino-[4ʹ,5ʹ : 3,4] pyrrolo [2,1-a] isochinolin [B]”, the “Potenzierung des stimulierten Ca²⁺-Efflux” value in assay [2] is on record as 27%. In addition, in assay [4], the Hypoxie entry was “wirksam (wirksam: Im Dosenbereich bis einschließlich 30 mg/kg zeigen in der mit Substanz behandelten Tiergruppe signifikant mehr Tiere den gewünschten Effekt als in der Kontrollgruppe.)”.

For the compound “3,4-Dihydro-6,7-dimethoxy-12-isopropylamino-pyridazino-[4ʹ,5ʹ : 3,4] pyrrolo [2,1-a] isochinolin”, the Hypoxie entry in assay [4] is given as “wirksam (wirksam: Im Dosenbereich bis einschließlich 30 mg/kg zeigen in der mit Substanz behandelten Tiergruppe signifikant mehr Tiere den gewünschten Effekt als in der Kontrollgruppe.)”.

For the compound “12-Allylamino-3,4-dihydro-6,7-dimethoxy-pyridazino-[4ʹ,5ʹ : 3,4] pyrrolo[2,1-a]isochinolin”, the H50-Wert in assay [1] is given as 2,42.

For the compound `COc1ccc([C@@H]2Sc3ccccc3N(CCN(C)C)C(=O)[C@@H]2OC(C)=O)cc1` [Diltiazem, reference compound], the Scopolamin-Demenz result in assay [6] (doses up to 30 mg/kg) is given as “unwirksam”. Also, the Hypoxie result in assay [4] is listed as “unwirksam”.

Consider `COC(=O)C1=C(C)NC(C)=C(C(=O)OC)C1c1ccccc1[N+](=O)[O-]` [Nifedipin], for which the results for the Scopolamin-Demenz result in assay [6] (dose 1 mg/kg) and in assay [6] (dose 3-30) were “wirksam (wirksam: Im Dosenbereich bis einschließlich 30 mg/kg zeigen in der mit Substanz behandelten Tiergruppe signifikant mehr Tiere den gewünschten Effekt als in der Kontrollgruppe.)” and “unwirksam”, respectively. For the same compound, in assay [4], the Hypoxie result was “unwirksam”.

In the case of `COc1ccc(CCN(C)CCCC(C#N)(c2ccc(OC)c(OC)c2)C(C)C)cc1OC` (stereo not drawn) [Verapamil], the Scopolamin-Demenz entry in assay [6] (doses up to 30 mg/kg) is recorded as “unwirksam”.
